Values quoted from earlier work, collected in US20170072004A1, “COMPOSITIONS AND METHODS FOR IMPROVING THE BIOAVAILABILITY OF CURCUMINOIDS” (priority 2015, published 2017).

Conditions: rats, oral curcumin 2 g/kg, co-administration of piperine

Increase in systemic bioavailability following oral dosing: ≤ 154%
SMILES: COc1cc(/C=C/C(=O)CC(=O)/C=C/c2ccc(O)c(OC)c2)ccc1O [curcumin, diferuloylmethane]
